The text below walks through data of patent publication EP2679243B1, “Co-precipitate of one or more stilbene polyphenols in lamellar anionic solids, it's applications and related preparation method” (Fioretti, Bernard, priority 2012, dated 2014).

Usually pKa stands for the pH at which an ionisable group is half protonated. The solubility is the dissolved amount per volume that the medium holds. Low readings indicate little dissolved substance, high ones much dissolved substance.

The nature of series [1]: Photostability under irradiation at 340 nm (absorption spectra). The format is physicochemical. An excerpt: • Figure 1. Characterization of the product obtained from the co-precipitation process according to the invention described in example 1. […] Figure 1B. The thermogravimetric analysis defines weight percentage of resveratrol load in co-precipitate. […] Characterization of the product obtained from the co-precipitation process according to the invention described in example 2. Figure 2A. […] Figure 2B. The thermogravimetric analysis to calculate weight percentage of resveratrol in co-precipitate. […] Figure 2C. […] Samples are prepared in aqueous solution. […] Column Luna Phenomenex RP-18, eluents A)-H2O + TFA 0.1% e B- MeCN (Gradient: 5min: 5% B; 20 min: until 95% B; 5 min: up to 5% B, Temperature: 25°C, flow speed of eluent 1.0 mL/min, detector: DAD (190-400 nm)) • Figure 3. […] A) Absorption spectrum of crystalline resveratrol. […] The dissolution rate is measured to acid gastric buffer (pH 1.2, XII italian FU) in non-sink condition at a temperature of 37°C and while being agitated (agitation 60 rotation/minute).
Solution 1is prepared by dissolving 258.3 mg of AlCl3 * 6H2O and 508.3 mg of MgCl2 * 6H2O in 18 mL of deionized water. […] A hydro-alcoholic solution is obtained by mixing the first and second solution and keeping it in a dark environment, agitated and in nitrogen flow. To this solution, under nitrogen flow, it has to be added 10 ml of NaOH solution 1 M up to a pH between 10-11. […]

For series [2] the following is noted: cited from earlier work.
Series [3] in a line: Solubility in gastric fluid (indirect weighing and UV dosage). The format is physicochemical. The following applies: gastric fluid (FU; fluid mimicking the gastric fluid), simulated gastric fluid, thermodynamic from solid, gastric fluid pH 1.2, FU. The protocol:
Solution 1is prepared by dissolving 258.3 mg of AlCl3 * 6H2O and 508.3 mg of MgCl2 * 6H2O in 18 mL of deionized water. […] A hydro-alcoholic solution is obtained by mixing the first and second solution and keeping it in a dark environment, agitated and in nitrogen flow. To this solution, under nitrogen flow, it has to be added 10 ml of NaOH solution 1 M up to a pH between 10-11. Solid precipitated is left to be digested for 15 minutes and then it is separated through centrifugation. The solid recovered, has to be washed 2 times using 30 ml of deionized water and finally using 20 ml of ethanol. Finally the solid recovered is dryed out at 50 °C. […] Width of signals is due to low crystallinity of hydrotalcitic matrix that can be ascribed to an amorphous phase. […] The presence of resveratrol is confirmed by DTA signal (black trace) in which it is possible to observe a sequence of exhotermic processes due to resveratrol degradation. […] Little changes are observed after a 120 minute irradiation at 340 nm (Figure 3C. black trace: not irradiated; red trace: irradiated). […] Dissolution tests in fluids mimicking the gastric fluid (pH: 1-2, FU) at 37 °C, stirred and characterized by a blade rotation speed equal to 60 rotation/min in not sink conditions.

For series [4] the following is noted: cited from earlier work. The source holds these as a separate data set.
The conditions of series [5]: compared to resveratrol; cited from earlier work.

Converted amounts (≈) assume the structure as drawn.

In the case of `Oc1ccc(/C=C/c2cc(O)cc(O)c2)cc1` [resveratrol, trans-resveratrol], the photostability entry is reported as “photo-instability” in series [1] (aqueous solution, 30 minute irradiation at 340 nm) and “photo-degraded” in series [1] (solid, 60 minute irradiation at 340 nm). For the same compound, in series [2], the pKa was around 10. The compound further registered a solubility in series [3] of 44 µg/mL (≈ 193 µM). Further, the solubility in water entry in series [4] was “about 30 mg/l”.
As to resveratrol-L-arginine salt, the maximum plasma peak result in series [5] is given as “increased”.
